Laboratory results taken from patent publication US12478592B2, “Dosage regime with esketamine for treating neuropsychiatric or neurological conditions” (priority 2019, dated 2025).

Legend:
[1] = test system: human peripheral blood lymphocytes (HPBL)
Experimental: The clastogenic potential of (S)-norketamine was evaluated in the in vitro mammalian chromosome aberration test using human peripheral blood lymphocytes (HPBL) in both the absence and presence of an induced metabolic activation system (the 9000 g supernatant [S9] microsomal fraction of liver homogenate from rats exposed to phenobarbital/5,6-benzoflavone).
The study was conducted in 2 phases, with a preliminary toxicity test used to determine the appropriate concentrations for the definitive chromosomal aberration assay. Water was used as a negative (vehicle) control. In both phases, the cells were treated for 3 and 21 hours in the absence of S9 mix and for 3 hours in the presence of S9 mix. The mitotic index was assessed for all cultures to determine cytotoxicity. Ten concentrations, ranging from 2.62 to 260.16 μg/mL, were evaluated in the preliminary toxicity test. […] (S)-Norketamine concentrations of 93.66, 156.10 or 260.16 μg/mL were selected for metaphase analysis.

[2] = Single dose crossover study in healthy volunteers, pharmacokinetics
Source text: A randomized, open-label 4-way crossover study in 16 healthy male and female subjects was held wherein said subjects were placed in a randomly assigned order and administered esketamine. Each subject was assigned to 1 of 4 treatment sequences according to a randomization code such that 4 subjects were assigned to each treatment sequence. There was a wash-out period of at least 7 days between dosing periods with doses consisting of either oral or intravenous esketamine hydrochloride. The study consisted of an eligibility screening period of 28 days, 4 study periods involving administration of a single dose of esketamine hydrochloride followed by safety assessments with blood sampling for PK purposes up to 72 hours after study drug administration, discharge at 72 hours after study drug administration and a follow-up visit 7-14 days after the last PK blood sample was taken on Day 4.

Sprague Dawley rats [3] = experiment: Repeated dose 28 day study, toxicity; type: in vivo; conditions: 28 days oral gavage; males 6, 10, 30 and females 2, 10, 20 mg/kg/day
[4] = Repeated dose 28 day study, toxicokinetics; conditions: for Dose normalized AUC0-inf: Day 1
Experimental: The objective of the study was to assess the potential toxicity, neurobehavioral effects, and toxicokinetics (TK) of esketamine when administered orally, via gavage, to Sprague Dawley rats for 28 days and to evaluate recovery during a 14-day drug-free period. Fifty male and 50 female rats were randomized into 4 groups (15/sex/Groups 1 and 4; 10/sex/Groups 2 and 3). Esketamine was administered via oral gavage once daily for 28 consecutive days to males at 0 (vehicle control), 6, 10 or 30 mg/kg/day and females at 0 (vehicle control), 2, 10 or 20 mg/kg/day in a dose volume of 10 mL/kg. Animals were observed until euthanized and necropsied on Day 29 (10/sex/group) or 43 (5/sex from Groups 1 and 4). Toxicity was evaluated based on mortality, clinical observations, body weights, food consumption, ophthalmology, motor activity, functional observational battery, clinical pathology (clinical chemistry, hematology, coagulation and urinalysis), organ weights, anatomic (macroscopic or microscopic) pathology. Toxicokinetic animals (3/sex/Group 1; 6/sex/Groups 2, 3, and 4) were similarly dosed and bled on Day 1 and during Week 4 for toxicokinetic analysis.

liver of Crl:CD(SD) rats = experiment: In vivo single cell gel electrophoresis (comet) assay, liver; conditions: for median % tail intensity (% TI) in liver vs vehicle control: 3 doses, p<0.001; for lower benchmark dose (BMDL50), single slide median Tail Intensity: PROAST v63.3
[5] = test system: human peripheral blood lymphocytes (HPBL); remark: listed apart in the source
Experimental: The clastogenic potential of esketamine was evaluated in the in vitro mammalian chromosome aberration test using human peripheral blood lymphocytes (HPBL) in both the absence and presence of an induced metabolic activation system (the 9000 g supernatant [S9] microsomal fraction of liver homogenate from rats exposed to Aroclor-1254).
The study was conducted in 2 phases, with a preliminary toxicity test used to determine the appropriate concentrations for the definitive chromosomal aberration assay. Water was used as a negative (vehicle) control. Toxicity (defined as ≥45% reduction in MI relative to the vehicle control) was evaluated at 9 concentrations, ranging from 0.0238 to 238 μg/ml, after exposure of HPBL to esketamine for 20 hours in the absence of S9 activation, or for 4 hours, either in the presence or absence of S9 activation, followed by a 16-hour recovery period.
The definitive chromosome aberration assay evaluated HPBL cells after exposure to esketamine for 20 hours in the absence of S9 activation, or for 4 hours, either in the presence of absence of S9 activation, followed by a 16-hour recovery. Positive controls for chromosomal aberrations in non-activated and S9-activated evaluations, respectively, consisted of mitomycin C (MMC, 0.6 and 0.3 μg/mL for the 4- and 20-hour exposures, respectively) and cyclophosphamide (CP, 2.5, 5, and 7.5 μg/mL). […] Initially, the doses selected for evaluation of chromosomal aberrations were 60, 120, and 238 μg/mL for the non-activated 4- and 20-hour treatment conditions; and 30, 60, and 200 μg/mL for the S9-activated 4-hour treatment condition.

Sprague Dawley rats [6] = experiment: 104 week carcinogenicity study; type: in vivo; conditions: after 28 days at point of departure doses and at reduced doses after 730 days
Experimental: A 104 Week carcinogenicity study of esketamine administered via oral gavage to Sprague Dawley Rats is performed to evaluate the carcinogenic potential and determine the toxicokinetics of esketamine.
The study end-points include clinical observations, body weight changes, food consumption, bioanalytical toxicokinetic analysis, and anatomic macroscopic and microscopic pathology findings.

male Sprague Dawley rats = experiment: 7-day forced swim test; type: in vivo; conditions: 15 mg/kg i.p., single acute dose
Experimental: Groups of, 6-7 week old, male Sprague Dawley rats were administered esketamine by intraperitoneal injection and their behavioral despair assessed by a forced swim test. The animals, in cohorts of 10, were administered either a single dose of 15 mg/kg esketamine, 7 daily doses of either 7.5 or 15 mg/kg esketamine or a vehicle control, and the test performed 30 minutes after dosing. Statistical evaluation was performed using an ordinary One-Way ANOVA, t Test and an Uncorrected Fisher's LSD comparisons test.

[7] = test system: healthy male and female subjects; experiment: Single dose crossover study in healthy volunteers, adverse events; type: in vivo, human
Source text: A total of 128 TEAEs (treatment-emergent adverse event) were reported by 15 of 16 (94%) subjects of which 79 TEAEs reported by 14 of 16 (88%) subjects were to be related to the study drug. Overall, a total of 14 of 128 TEAEs reported by 4 (25%) subjects were of moderate severity and 114 of 128 TEAEs reported by 15 (94%) subjects were of mild severity. […] The most frequently occurring adverse events (reported more than twice) were headache, dizziness, hypokinesia, feeling abnormal, fatigue, euphoric mood inappropriate affect, nausea and hyperhidrosis. Table 4 presents the frequency of the most frequently reported related TEAEs as a percentage of the subjects that experienced an adverse effect per treatment.

[8] = plasma analyte after single 20 mg oral solution of esketamine hydrochloride
[9] = Day 28, male rats, 6 mg/kg oral gavage once daily
[10] = Day 28, male rats, 10 mg/kg oral gavage once daily

N[C@]1(c2ccccc2Cl)CCCCC1=O [(S)-norketamine, (2S)-2-(2-Chlorophenyl)-2-(amino) cyclohexanone]
Toxicity (mitotic index), preliminary toxicity test [1]: Toxicity was not observed at any dose
clastogenicity, induction of structural and numerical chromosomal aberrations [1]: non-clastogenic
AUC0-inf, Geometric mean (CV %) [2, 8]: 416.89 (19%) ng · h/ml
AUC0-t, Geometric mean (CV %) [2, 8]: 404.96 (19%) ng · h/ml
t1/2, Geometric mean (CV %) [2, 8]: 8.88 (26%) h
t1/2, Geometric mean (CV %) ([2]; plasma analyte after single 100 mg oral tablet of esketamine hydrochloride): 9.27 (25%) h

CN[C@]1(c2ccccc2Cl)CCCCC1=O [esketamine, (2S)-2-(2-Chlorophenyl)-2-(methylamino) cyclohexanone]
effects on clinical signs, body weights, food consumption, ophthalmology, motor activity, functional observational battery, clinical pathology or anatomic pathology (Sprague Dawley rats [3]): no esketamine-related effects
mortality (Sprague Dawley rats [3]): no mortality
Dose normalized AUC0-inf ([4]; female rats, 2 mg/kg oral gavage): 29.0 (ng * h/ml)/(mg/kg)
Dose normalized AUC0-inf ([4]; female rats, 10 mg/kg oral gavage): 44.0 (ng * h/ml)/(mg/kg)
Dose normalized AUC0-inf ([4]; female rats, 20 mg/kg oral gavage): 49.8 (ng * h/ml)/(mg/kg)
Dose normalized AUC0-inf ([4]; male rats, 6 mg/kg oral gavage): 17.2 (ng * h/ml)/(mg/kg)
Dose normalized AUC0-inf ([4]; male rats, 10 mg/kg oral gavage): 18.1 (ng * h/ml)/(mg/kg)
Dose normalized AUC0-inf ([4]; male rats, 30 mg/kg oral gavage): 19.5 (ng * h/ml)/(mg/kg)
Dose normalized AUC0-t ([4]; Day 28, female rats, 2 mg/kg oral gavage once daily): 31.0 (ng * h/ml)/(mg/kg)
Dose normalized AUC0-t ([4]; Day 28, female rats, 10 mg/kg oral gavage once daily): 51.3 (ng * h/ml)/(mg/kg)
Dose normalized AUC0-t ([4]; Day 28, female rats, 20 mg/kg oral gavage once daily): 53.2 (ng * h/ml)/(mg/kg)
Cmax [4, 9]: 113.1 ng/mL
Dose normalized AUC0-t [4, 9]: 10.2 (ng * h/ml)/(mg/kg)
AUC0-t [4, 10]: 179 ng·h/mL
Dose normalized AUC0-t [4, 10]: 17.9 (ng * h/ml)/(mg/kg)
Dose normalized AUC0-t ([4]; Day 28, male rats, 30 mg/kg oral gavage once daily): 19.2 (ng * h/ml)/(mg/kg)
dose-normalized exposure, sex difference ([4]; after normalization for dose level differences): males had lower exposures than females
exposure Day 28 compared to Day 1 ([4]; exception: Cmax in females higher on Day 28): Exposures were similar on Day 28 compared to Day 1
increase of exposure with dose ([4]; females, 2 to 20 mg/kg/day): slightly greater than dose-proportional
increase of exposure with dose ([4]; males, 6 to 30 mg/kg/day): generally dose-proportional
macroscopic examination (liver of Crl:CD(SD) rats; after 3 doses of treatment): no test item related lesions
group mean and median % TI values vs vehicle historical control range (liver of Crl:CD(SD) rats; female rats, 25 and 50 mg/kg/day): outside of the current vehicle historical control range
median % tail intensity (% TI) in liver vs vehicle control (liver of Crl:CD(SD) rats; female rats, 25 and 50 mg/kg/day oral gavage): Statistically significant increases
lower benchmark dose (BMDL50), single slide median Tail Intensity (liver of Crl:CD(SD) rats; female rats): 9.83 mg/kg/day
DNA strand breaks in the liver (liver of Crl:CD(SD) rats; male and female rats, oral gavage): evidence of causing an increase
Hedgehog cells in the liver (liver of Crl:CD(SD) rats; male or female rats, any dose level): No Hedgehog cells were observed
group mean and median % TI values vs vehicle historical control range (liver of Crl:CD(SD) rats; male rats, 75 mg/kg/day): outside of the current vehicle historical control range
median % tail intensity (% TI) in liver vs vehicle control (liver of Crl:CD(SD) rats; male rats, 75 mg/kg/day oral gavage): Statistically significant increases
lower benchmark dose (BMDL50), single slide median Tail Intensity (liver of Crl:CD(SD) rats; male rats): 27.31 mg/kg/day
Cochran-Armitage test for dose response, structural aberrations [5]: positive for a dose response
Toxicity (≥45% reduction in MI relative to the vehicle control), preliminary toxicity test [5]: Toxicity was not observed at any dose
cytotoxicity (≥45% reduction in mitotic index relative to the vehicle control) ([5]; non-activated 4- and 20-hour treatment conditions): not observed at any esketamine dose
genotoxic changes as shown in Examples 1 and 2 (Sprague Dawley rats [6]): not identified
effect on immobility time (male Sprague Dawley rats): 42 % of control
related TEAE Dizziness, percentage of subjects ([7]; 0.3 mg/kg iv): 6%
related TEAE Euphoric mood, percentage of subjects ([7]; 0.3 mg/kg iv): 19%
related TEAE Fatigue, percentage of subjects ([7]; 0.3 mg/kg iv): 6%
related TEAE Feeling abnormal, percentage of subjects ([7]; 0.3 mg/kg iv): 13%
related TEAE Headache, percentage of subjects ([7]; 0.3 mg/kg iv): 19%
related TEAE Hypokinesia, percentage of subjects ([7]; 0.3 mg/kg iv): 6%
related TEAE Inappropriate affect, percentage of subjects ([7]; 0.3 mg/kg iv): 6%
related TEAE Nausea, percentage of subjects ([7]; 0.3 mg/kg iv): 6%
related TEAE Feeling abnormal, percentage of subjects ([7]; 20 mg oral solution): 19%
related TEAE Headache, percentage of subjects ([7]; 20 mg oral solution): 19%
related TEAE Inappropriate affect, percentage of subjects ([7]; 20 mg oral solution): 6%
related TEAE Dizziness, percentage of subjects ([7]; 20 mg oral tablet): 13%
related TEAE Fatigue, percentage of subjects ([7]; 20 mg oral tablet): 7%
related TEAE Feeling abnormal, percentage of subjects ([7]; 20 mg oral tablet): 7%
related TEAE Hyperhidrosis, percentage of subjects ([7]; 20 mg oral tablet): 7%
related TEAE Dizziness, percentage of subjects ([7]; 100 mg oral tablet): 13%
related TEAE Euphoric mood, percentage of subjects ([7]; 100 mg oral tablet): 13%
related TEAE Feeling abnormal, percentage of subjects ([7]; 100 mg oral tablet): 20%
related TEAE Headache, percentage of subjects ([7]; 100 mg oral tablet): 13%
related TEAE Hyperhidrosis, percentage of subjects ([7]; 100 mg oral tablet): 7%
related TEAE Hypokinesia, percentage of subjects ([7]; 100 mg oral tablet): 13%
related TEAE Inappropriate affect, percentage of subjects ([7]; 100 mg oral tablet): 7%
related TEAE Nausea, percentage of subjects ([7]; 100 mg oral tablet): 20%
number of TEAEs related to the study drug ([7]; all treatments): 79
total number of TEAEs ([7]; all treatments, 16 subjects): 128
number of TEAEs of mild severity ([7]; of 128 TEAEs): 114
number of TEAEs of moderate severity ([7]; of 128 TEAEs): 14
t1/2, Geometric mean (CV %) [2, 8]: 2.91 (37%) h

N[C@]1(c2ccccc2Cl)CCC[C@H](O)C1=O [(2S,6S)-OH-Norketamine, (2S,6S)-2-Amino-2-(2-chlorophenyl)-6-hydroxycyclohexanone]
Cmax, Geometric mean (CV %) ([2]; plasma analyte after single 20 mg oral solution of esketamine hydrochloride, 15 subjects): 46.46 (28%) ng/ml

CO[C@@]12[C@H](COC(N)=O)C3=C(C(=O)C(C)=C(N)C3=O)N1C[C@@H]1N[C@@H]12 [MMC, mitomycin C]
structural chromosomal aberrations, % of the cells [5]: 13.3%
mean MI value ([5]; non-activated systems, positive control 0.6 and 0.3 μg/mL for 4- and 20-hour exposures): 9%
